ChEMBL document CHEMBL4715874, “In Vivo Screening of Xanthones from Garcinia oligantha Identified Oliganthin H as a Novel Natural Inhibitor of Convulsions” (J Nat Prod, 2020)

What was measured:
[1] = Toxicity in AB zebra fish larvae assessed as maximum tolerated concentration after 6 hrs; design: species or system Danio rerio; settings: zebrafish, read-out: MTC
[2] = Effect of gad1 mRNA expression in AB zebra fish larvae at 25 uM after 6 hrs by qRT-PCR analysis (reference value: 1 +/- 0.11%); type: ADME, Danio rerio; settings: zebrafish
Danio rerio [3] = species on record: Danio rerio; assay: Anticonvulsant activity in AB zebra fish larvae assessed as PTZ-induced velocity at 25 uM pretreated for 6 hrs followed by PTZ-stimulation and measured every 5 mins for 30 mins (reference value: 0.63 +/- 0.23 mm/s); type: functional; settings: time 6.5 hrs
[4] = Toxicity in AB zebra fish larvae assessed as mortality at 100 uM after 6 hrs; design: species or system Danio rerio; settings: zebrafish
[5] = Effect of pvalb5 mRNA expression in AB zebra fish larvae at 25 uM after 6 hrs by qRT-PCR analysis (reference value: 1 +/- 0.07%); type: ADME, Danio rerio; settings: zebrafish
[6] = Neurotoxicity in AB zebra fish larvae assessed as decrease in total swimming distance at <= MTC after 6 hrs; type: toxicity, Danio rerio; settings: zebrafish
[7] = Effect of gat1 mRNA expression in AB zebra fish larvae at 25 uM after 6 hrs by qRT-PCR analysis (reference value: 1.03 +/- 0.38%); type: ADME, Danio rerio; settings: zebrafish
[8] = Effect of GLSA mRNA expression in AB zebra fish larvae at 25 uM after 6 hrs by qRT-PCR analysis (reference value: 1 +/- 0.18%); type: ADME, Danio rerio; settings: zebrafish
Danio rerio [9] = species on record: Danio rerio; assay: Anticonvulsant activity in AB zebra fish larvae assessed as PTZ-induced velocity at 12.5 uM pretreated for 6 hrs followed by PTZ-stimulation and measured every 5 mins for 30 mins (reference value: 0.63 +/- 0.23 mm/s); type: functional; settings: time 6.5 hrs
Danio rerio [10] = species on record: Danio rerio; assay: Anticonvulsant activity in AB zebra fish larvae assessed as PTZ-induced gad1 mRNA expression at 25 uM pretreated for 6 hrs followed by PTZ-stimulation and measured after 30 mins by qRT-PCR analysis (reference value: 5.45 +/- 1.77%); type: functional; settings: time 6.5 hrs
Danio rerio [11] = species on record: Danio rerio; assay: Anticonvulsant activity in AB zebra fish larvae assessed as PTZ-induced calb2 mRNA expression at 25 uM pretreated for 6 hrs followed by PTZ-stimulation and measured after 30 mins by qRT-PCR analysis (reference value: 0.88 +/- 0.39%); type: functional; settings: time 6.5 hrs
Danio rerio [12] = species on record: Danio rerio; assay: Anticonvulsant activity in AB zebra fish larvae assessed as reduction in PTZ-induced convulsant behavior by measuring swimming distance at 12.5 uM pretreated for 6 hrs followed by PTZ-stimulation and measured every 5 mins for 1 hr relative to control; type: functional; design: scale not given: the % may be the effect or the level left; settings: time 7 hrs
Danio rerio [13] = species on record: Danio rerio; assay: Anticonvulsant activity in AB zebra fish larvae assessed as PTZ-induced number of burst at 25 uM pretreated for 6 hrs followed by PTZ-stimulation and measured every 5 mins for 30 mins (reference value: 9.25 +/- 6.36); type: functional; settings: time 6.5 hrs
Danio rerio [14] = species on record: Danio rerio; assay: Anticonvulsant activity in AB zebra fish larvae assessed as PTZ-induced PYYA mRNA expression at 25 uM pretreated for 6 hrs followed by PTZ-stimulation and measured after 30 mins by qRT-PCR analysis (reference value: 18.53 +/- 4.32%); type: functional; settings: time 6.5 hrs
[15] = Effect of ABAT mRNA expression in AB zebra fish larvae at 25 uM after 6 hrs by qRT-PCR analysis (reference value: 1 +/- 0.11%); type: ADME, Danio rerio; settings: zebrafish
[16] = Effect of GLULA mRNA expression in AB zebra fish larvae at 25 uM after 6 hrs by qRT-PCR analysis (reference value: 1.02 +/- 0.29%); type: ADME, Danio rerio; settings: zebrafish
[17] = Effect of calb2 mRNA expression in AB zebra fish larvae at 25 uM after 6 hrs by qRT-PCR analysis (reference value: 1.02 +/- 0.33%); type: ADME, Danio rerio; settings: zebrafish
[18] = Effect of glud1a mRNA expression in AB zebra fish larvae at 25 uM after 6 hrs by qRT-PCR analysis (reference value: 1 +/- 0.16%); type: ADME, Danio rerio; settings: zebrafish
Danio rerio [19] = species on record: Danio rerio; assay: Anticonvulsant activity in AB zebra fish larvae assessed as PTZ-induced gabra1 mRNA expression at 25 uM pretreated for 6 hrs followed by PTZ-stimulation and measured after 30 mins by qRT-PCR analysis (reference value: 19.68 +/- 3.28%); type: functional; settings: time 6.5 hrs
Danio rerio [20] = species on record: Danio rerio; assay: Anticonvulsant activity in AB zebra fish larvae assessed as PTZ-induced npas4a mRNA expression at 25 uM pretreated for 6 hrs followed by PTZ-stimulation and measured after 30 mins by qRT-PCR analysis (reference value: 25.34 +/- 3.28%); type: functional; settings: time 6.5 hrs
[21] = Effect of gabra1 mRNA expression in AB zebra fish larvae at 25 uM after 6 hrs by qRT-PCR analysis (reference value: 1 +/- 0.11%); type: ADME, Danio rerio; settings: zebrafish
Danio rerio [22] = species on record: Danio rerio; assay: Anticonvulsant activity in AB zebra fish larvae assessed as PTZ-induced ABAT mRNA expression at 25 uM pretreated for 6 hrs followed by PTZ-stimulation and measured after 30 mins by qRT-PCR analysis (reference value: 2.16 +/- 1.2%); type: functional; settings: time 6.5 hrs
Danio rerio [23] = species on record: Danio rerio; assay: Anticonvulsant activity in AB zebra fish larvae assessed as PTZ-induced PRKACB mRNA expression at 25 uM pretreated for 6 hrs followed by PTZ-stimulation and measured after 30 mins by qRT-PCR analysis (reference value: 1.49 +/- 0.69%); type: functional; settings: time 6.5 hrs
[24] = Effect of BDNF mRNA expression in AB zebra fish larvae at 25 uM after 6 hrs by qRT-PCR analysis (reference value: 1.01 +/- 0.21%); type: ADME, Danio rerio; settings: zebrafish
Danio rerio [25] = species on record: Danio rerio; assay: Anticonvulsant activity in AB zebra fish larvae assessed as PTZ-induced c-fos mRNA expression at 25 uM pretreated for 6 hrs followed by PTZ-stimulation and measured after 30 mins by qRT-PCR analysis (reference value: 8.91 +/- 0.54%); type: functional; settings: time 6.5 hrs

CC(C)=CCC/C(C)=C/C[C@@]1(CC=C(C)C)C(=O)C(O)=C(O)c2oc3c4c(cc(O)c3c(=O)c21)OC(C)(C)C=C4
MNTC at 6 h [1]: 50 µM | Activity [2]: 1.31% | Activity (Danio rerio [3]): 0.8 millimeter/sec | Activity [4]: Toxic | Activity [5]: 0.86% | Activity [6]: Non-Toxic | Activity [7]: 0.87% | Activity [8]: 0.78% | Activity (Danio rerio [9]): 0.86 millimeter/sec | Activity (Danio rerio [10]): 1.08% | Activity (Danio rerio [11]): 0.97% | Activity (Danio rerio [12]): 25% | Activity (Danio rerio [13]): 142.3 | Activity (Danio rerio [14]): 1.09% | Activity [15]: 0.7% | Activity [16]: 0.76% | Activity [17]: 0.86% | Activity [18]: 1% | Activity (Danio rerio [19]): 1.34% | Activity (Danio rerio [20]): 0.89% | Activity [21]: 1.77% | Activity (Danio rerio [22]): 0.53% | Activity (Danio rerio [23]): 1.21% | Activity [24]: 1.14% | Activity (Danio rerio [25]): 3.31%
